Marks after values point to notes of the source that are not given here.
Experiments:
[1] = system: AI-2 activity of APEC O78; assay: AI-2 bioluminescence indicator assay (V. harveyi BB170); conditions: APEC O78, 100 µM
AI-2 activity of APEC O8 = assay: as above; conditions: APEC O8, 100 µM
[2] = system: AI-2 activity of APEC O18; assay: as above; conditions: APEC O18, 100 µM
[3] = system: AI-2 activity of APEC O115; assay: as above; conditions: APEC O115, 100 µM
[4] = system: AI-2 activity of APEC O15; assay: as above; conditions: APEC O15, 100 µM
AI-2 activity of APEC O2 = assay: as above; conditions: APEC O2, 100 µM
[5] = system: AI-2 activity of APEC O35; assay: as above; conditions: APEC O35, 100 µM
AI-2 activity of APEC O1 = assay: as above; conditions: APEC O1, 100 µM
[6] = system: AI-2 activity of APEC O109; assay: as above; conditions: APEC O109, 100 µM
APEC O1 in HD-11 cells = assay: Intracellular survival assay (AI-2 inhibitors); conditions: O1, HD-11, 100 µM, 6 h
[7] = system: QS and virulence associated genes of APEC O78; assay: qRT-PCR of QS-regulated and virulence factors genes; format: cell-based, avian pathogenic Escherichia coli (APEC); conditions: 100 µM, 10 h
Procedure: Quantitative real-time reverse transcription PCR (qRT-PCR). […] APEC O78 was grown in the presence of 100 µM of each compound in a 96-well plate at 37° C. for 10 h. APEC O78 culture treated with 1 µL of 100% DMSO was used as […]. Total RNA was extracted from duplicate wells for each compound (200 µL) using a miRNeasy Mini Kit (Qiagen). RNA quality and quantity was determined by nanodrop 2000 C spectrophotometer (Thermo scientific). Traces of DNA was removed using Genomic DNA removal mix (Qiagen). Approximately, 5 µg of purified RNA was used to synthesize cDNA using the Qiagen RT^2 First Strand Kit (Qiagen). The qRT-PCR was performed using SensiMix™ SYBER® Hi-Rox qPCR Master Mix (Bioline) according to manufacturer instructions in a realplex^2 mastercycler (Eppendorf) with 55° C. annealing temperature. Gene-specific primers were designed using PrimerQuest Tool and obtained from integrated DNA technologies (IDT). The data were normalized to the house-keeping gene, glyceraldehyde-3-phosphate dehydrogenase (GAPDH). The relative fold change was calculated using the ΔΔCt method. Three independent experiments were conducted.

Rif^r APEC O78 = assay: In vivo efficacy of growth inhibitors in APEC infected broiler chickens
APEC O2-211 = format: cell-based, avian pathogenic Escherichia coli (APEC); conditions: APEC O2-211, M63 media; MIC/MBC
[8] = system: intracellular APEC O78 in HD11 cells; assay: Intracellular survival assay (cidal SMs); conditions: O78, HD11, 6 h treatment; superscript = multiple of MIC
[9] = system: intracellular APEC O78 in Caco-2 cells; assay: Intracellular survival assay (cidal SMs); conditions: O78, Caco-2, 6 h treatment; superscript = multiple of MIC
[10] = system: intracellular APEC O2 in THP-1 cells; assay: Intracellular survival assay (cidal SMs); conditions: O2, THP-1, 6 h treatment; superscript = multiple of MIC
APEC O1 = format: cell-based, avian pathogenic Escherichia coli (APEC); conditions: APEC O1, M63 media; MIC/MBC
APEC O1-63 = format: cell-based, avian pathogenic Escherichia coli (APEC); conditions: APEC O1-63, M63 media; MIC/MBC
[11] = system: intracellular APEC O2 in Caco-2 cells; assay: Intracellular survival assay (cidal SMs); conditions: O2, Caco-2, 6 h treatment; superscript = multiple of MIC
APEC O18 = format: cell-based, avian pathogenic Escherichia coli (APEC); conditions: APEC O18, M63 media; MIC/MBC
[12] = Pilot experiment in chickens; format: in vivo, chicken
APEC O8 = format: cell-based, avian pathogenic Escherichia coli (APEC); conditions: APEC O8, M63 media; MIC/MBC
[13] = system: intracellular APEC O1 in Caco-2 cells; assay: Intracellular survival assay (cidal SMs); conditions: O1, Caco-2, 6 h treatment; superscript = multiple of MIC
[14] = system: intracellular APEC O78 in THP-1 cells; assay: Intracellular survival assay (cidal SMs); conditions: O78, THP-1, 6 h treatment; superscript = multiple of MIC
APEC O109 = format: cell-based, avian pathogenic Escherichia coli (APEC); conditions: APEC O109, M63 media; MIC/MBC
APEC O78-53 = format: cell-based, avian pathogenic Escherichia coli (APEC); conditions: APEC O78-53, M63 media; MIC/MBC
[15] = system: intracellular APEC O2 in HD11 cells; assay: Intracellular survival assay (cidal SMs); conditions: O2, HD11, 6 h treatment; superscript = multiple of MIC
APEC O78 [16] = assay: Confocal microscopy bacterial cytological profiling; format: cell-based, avian pathogenic Escherichia coli (APEC); conditions: 2X MBC
Procedure: Confocal and scanning electron microscopy. Confocal microscopy was used for bacterial cytological profiling (BCP) to identify the cellular pathways targeted by SMs as described previously. […] After incubation, treated cultures were centrifuged, washed, and resuspended in 100 μL PBS. […] Cultures were then centrifuged, washed, and resuspended in PBS to 1⁄10th volume of the original cultures.

APEC O115 = format: cell-based, avian pathogenic Escherichia coli (APEC); conditions: APEC O115, M63 media; MIC/MBC
APEC O2 = format: cell-based, avian pathogenic Escherichia coli (APEC); conditions: APEC O2, M63 media; MIC/MBC
[17] = system: biofilm embedded APEC O78; assay: MBEC High-throughput assay; format: cell-based, avian pathogenic Escherichia coli (APEC); conditions: biofilm embedded APEC O78; superscript = multiple of MIC (footnote)
APEC O78 [18] = assay: Loss of 260/280 nm absorbing materials assay; format: cell-based, avian pathogenic Escherichia coli (APEC); conditions: 2X MBC, 1 h, *P<0.05 vs DMSO
[19] = system: intracellular APEC O1 in HD11 cells; assay: Intracellular survival assay (cidal SMs); conditions: O1, HD11, 6 h treatment; superscript = multiple of MIC
[20] = system: intracellular APEC O1 in THP-1 cells; assay: Intracellular survival assay (cidal SMs); conditions: O1, THP-1, 6 h treatment; superscript = multiple of MIC
APEC O78 [21] = format: cell-based, avian pathogenic Escherichia coli (APEC); conditions: APEC O78, M63 media; cell prints MIC/MBC
APEC O35 = format: cell-based, avian pathogenic Escherichia coli (APEC); conditions: APEC O35, M63 media; MIC/MBC
APEC O15 = format: cell-based, avian pathogenic Escherichia coli (APEC); conditions: APEC O15, M63 media; MIC/MBC

## NC(=O)c1ccccc1Nc1cccc(C(F)(F)F)c1 [C3, 2-[[3-(trifuoromethyl)phenyl]amino]benzamide]
[1]
  Inhibition % of AI-2 activity: 78%
AI-2 activity of APEC O8
  Inhibition % of AI-2 activity: 39%
[2]
  Inhibition % of AI-2 activity: 8%
[3]
  Inhibition % of AI-2 activity: 35%
[4]
  Inhibition % of AI-2 activity: 0%
AI-2 activity of APEC O2
  Inhibition % of AI-2 activity: 54%
[5]
  Inhibition % of AI-2 activity: 37%
AI-2 activity of APEC O1
  Inhibition % of AI-2 activity: 65%
[6]
  Inhibition % of AI-2 activity: 0%
APEC O1 in HD-11 cells
  clearance of intracellular APEC: 100%
APEC O1 in HD-11 cells; vs DMSO
  reduction of intracellular survival: 4 logs
[7]
  expression of fpr: down-regulated

## CCCCCCCCCCCCCCCC[n+]1ccn(CC#N)c1 [SM6]
Rif^r APEC O78; average of liver, heart, lung and kidney, vs untreated control
  reduction of average APEC load in internal organs: 1.4 logs
Rif^r APEC O78; liver, heart, lung and air-sacs, untreated 6.2
  cumulative lesions score: 5.4
Rif^r APEC O78; oral gavage twice a day, 5 days, untreated mortality (58.34%) normalized to 100%
  reduction of APEC induced mortality: 42.86%
Rif^r APEC O78; untreated control = 100%
  reduction of APEC lesions severity (%), Air-sacs (airsacculitis): -41.2%
  reduction of APEC lesions severity (%), Heart (pericarditis): 20%
  reduction of APEC lesions severity (%), Lung (lung congestion): 33.3%
Rif^r APEC O78; vs untreated control
  reduction of APEC load, Heart: 1.3 log CFU/g of tissues
  reduction of APEC load, Kidney: 1.9 log CFU/g of tissues
  reduction of APEC load, Liver: 1.2 log CFU/g of tissues
  reduction of APEC load, Lung: 1.2 log CFU/g of tissues
Rif^r APEC O78; weight of live chickens before necropsy minus weight before treatment
  Body weight gain (BWG): 222.18±54.01
APEC O2-211
  MBC: 12.5 µM
  MIC: 12.5 µM
[8]
  SMs intracellular APEC clearance concentration: 50^c µM
[9]
  SMs intracellular APEC clearance concentration: 50^c µM
[10]
  SMs intracellular APEC clearance concentration: 50^c µM
APEC O1
  MBC: 25 µM
  MIC: 12.5 µM
APEC O1-63
  MBC: 25 µM
  MIC: 12.5 µM
[11]
  SMs intracellular APEC clearance concentration: 100^d µM
APEC O18
  MBC: 25 µM
  MIC: 12.5 µM
[12]
  impact on chicken health and performance: no negative impact
APEC O8
  MBC: 12.5 µM
  MIC: 12.5 µM
[13]
  SMs intracellular APEC clearance concentration: 100^d µM
[14]
  SMs intracellular APEC clearance concentration: 50^c µM
APEC O109
  MBC: 12.5 µM
  MIC: 12.5 µM
APEC O78-53
  MBC: 25 µM
  MIC: 12.5 µM
[15]
  SMs intracellular APEC clearance concentration: 50^c µM
APEC O78 [16]
  cytological profile (confocal, FM4-64 / SYTO-9): membrane disruptors
APEC O115
  MBC: 25 µM
  MIC: 12.5 µM
APEC O2
  MBC: 25 µM
  MIC: 25 µM
[17]
  MBEC: 12.5^a µM
APEC O78 [18]; 260 nm absorbing material in supernatant
  Absorbance 260: 3.99*
APEC O78 [18]; 280 nm absorbing material in supernatant
  Absorbance 280: 2.69*
[19]
  SMs intracellular APEC clearance concentration: 100^d µM
[20]
  SMs intracellular APEC clearance concentration: 100^d µM
APEC O78 [21]
  MBC: 25 µM
  MIC: 12.5 µM
APEC O35
  MBC: 25 µM
  MIC: 12.5 µM
APEC O15
  MBC: 25 µM
  MIC: 12.5 µM
